This note sets out measurements from US20120028888A1, “APJ RECEPTOR COMPOUNDS” (priority 2008, published 2012).

In one experiment the test system is mouse heart function. The experiment is described as follows: Langendorff heart preparation, developed pressure. It is filed as ex vivo. The settings on record: isolated perfused mouse heart, 15 minutes. The procedure: A pressure-sensing balloon catheter was inserted in the LV cavity to record changes in the developed pressure. Heart function was assessed by measuring standard parameters such as heart rate, mean peak systolic pressure, mean end diastolic pressure, developed pressure, dP/dt max, and dP/dt min.

Experiment [1] has as its target T1, Gi-coupled receptor APJ (HEK cells stably expressing the APJ receptor) (Homo sapiens, UniProt P35414).
T1 construct: expressed in transfected cells; host or cells: HEK cells stably expressing APJ
T1 sequence (P35414 1-380): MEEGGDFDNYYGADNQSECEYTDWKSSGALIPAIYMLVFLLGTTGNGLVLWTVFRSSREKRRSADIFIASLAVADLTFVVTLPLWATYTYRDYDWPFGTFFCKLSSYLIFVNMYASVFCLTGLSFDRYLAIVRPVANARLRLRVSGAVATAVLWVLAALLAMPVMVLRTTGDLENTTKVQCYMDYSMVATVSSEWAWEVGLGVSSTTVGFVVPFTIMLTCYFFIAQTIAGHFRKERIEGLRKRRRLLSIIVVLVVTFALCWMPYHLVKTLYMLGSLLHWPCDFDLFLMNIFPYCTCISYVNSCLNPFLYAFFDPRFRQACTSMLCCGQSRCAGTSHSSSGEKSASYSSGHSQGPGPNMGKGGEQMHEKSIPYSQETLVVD
The experiment is described as follows: HTRF cAMP assay: inhibition of NKH477 stimulated increase in cAMP. Type of experiment: cell-based. The settings on record: read-out: EC50 value (nM), SEM. From the text:
HTRF (homogeneous time resolved fluorescence) is a technology developed by Cisbio Bioassays based on TR-FRET (time-resolved fluorescence resonance energy transfer). Cisbio Bioassays has developed a wide selection of HTRF-based assays compatible with whole cells, thereby enabling functional assays to run under more physiological conditions. The IP-One assays are competitive immunoassays using cryptate-labeled anti-IPI monoclonal antibody and d2-labeled IP1. IP1 is a relatively stable downstream metabolite of IP3, and accumulates in cells following Gq receptor activation.
cAMP kits based on a competitive immunoassay using cryptate-labeled anti-cAMP antibody and d2-labeled cAMP were used to assay the effects of APJ compounds of the present invention. This assay measures the increase in intracellular cAMP upon Gs-coupled receptor activation as well as decrease in forskolin (or a more soluble version of forskolin—NKH477) stimulated increase in cAMP upon Gi-coupled receptor activation.

Molecules are shown by their SMILES. Residues, ends and D or L forms follow the SMILES beside them. *: point of attachment. Palmitoyl = CCCCCCCCCCCCCCCC(=O)*

The EC50 is the midpoint of the concentration-response curve.

With `CCCCCCCCCCCCCCCC(=O)N[C@H](C(=O)N[C@H](C(=O)N[C@@H](Cc1ccccc1)C(=O)N[C@@H](CCCNC(=N)N)C(=O)N[C@@H](CO)C(=O)N[C@@H](CO)C(=O)N[C@@H](CCCNC(=N)N)C(=O)N[C@@H](CCC(=O)O)C(=O)N[C@@H](CCCCN)C(=O)N[C@@H](CCCNC(=N)N)C(=O)N[C@@H](CCCNC(=N)N)C(=O)N[C@@H](CO)C(=O)N[C@@H](C)C(=O)N[C@@H](CC(=O)O)C(=O)N[C@H](C(=O)N[C@@H](Cc1ccccc1)C(=O)N[C@H](C(N)=O)[C@@H](C)CC)[C@@H](C)CC)C(C)C)[C@@H](C)O` [Compound 12] (Palmitoyl-TVFRSSREKRRSADIFI-NH2), the “effect on mouse heart function (developed pressure, inotropic effect)” value in the experiment with mouse heart function is “demonstrates inotropic activity”. The EC50 in experiment [1] fell in the range of 1 to 500 nM.
